Measured values published in article PMC11973506, “In vitro α–Glucosidase Inhibition, Cytotoxicity, SAR, Swiss ADME Prediction and Molecular Docking Study of New N–Substituted Hydantoin Derivatives” (ChemistryOpen, 2025).
Where two headings read alike, the source gives them in different places.

Experiments:
Caco2 cell line = details: 48 hours of treatment with 100 μM, below 2000 considered toxic
Procedure: Cytotoxicity screening is one of the important tools used to determine whether a compound is toxic or not. Furthermore, these assays are performed by testing the ability of cells to continue proliferating in the presence of a test compound or substance over a specific period.[23] All hydantoin title compounds 8 a–o were screened for their in vitro cytotoxicity activity using the Caco2 cell line against the untreated (UT) and melphalan as a control. […] Any compound with living cells below […] was considered to be toxic.
The human colorectal adenocarcinoma cell line (CaCO2) used to screen the cytotoxicity of compounds 8 a–o was based on our initially described protocol.[21] […] Samples were sonicated if solubility was a problem and stored at 4 °C until required. Melphalan (100 mM stock) was prepared in DMSO and used as a positive control at a final concentration of 30 μM. The cells (4000 cells/well) were seeded in 96 well plates at 100 μL aliquots and were left for 24 hours to attach. After 24 hours, the 100 μL of the medium was treated with 100 μL aliquots of 200 μM dilution. Cells were maintained in 10 cm culture dishes in 10 mL complete medium (DMEM‐LG+10 % FBS+1× penicillin/streptomycin) and incubated for 48 hours at 37 °C, 5 % CO2, and 100 % relative humidity until needed. After incubation 100 μL staining solution Hoechst (5 μg/mL) and 10 μL PI solution were stained on the plates before they were incubated again for 30 min. Quantification of live and dead cells was performed using the ImageXpress Micro XLS Widefield Microscope (Molecular Devices) using a 10× Plan Fluor objective and DAPI and Texas Red filter cubes. Acquired images were analyzed using the MetaXpress software and Multi‐Wavelength Cell Scoring Application Module. Acquired data was transferred to an Excel spreadsheet and data was analyzed and processed.

[1] = biological target: T1, Saccharomyces cerevisiae α-glucosidase (Saccharomyces cerevisiae, UniProt P53341); assay: In vitro α-glucosidase inhibition assay (p-nitrophenyl glucopyranoside substrate); assay type: biochemical
T1 construct: purchased
Procedure: Using Saccharomyces cerevisiae α‐glucosidase enzymes, hydantoin derivatives 8 a–o were evaluated for them for their in vitro α‐glucosidase activity.
The α‐glucosidase inhibitions of compounds 8 a–o were screened as described in our previous method.[21] Epigallacatechin gallate (EGCG) was used as positive control. The α‐glucosidase enzyme (Saccharomyces Cerevisiae, 50 μg/mL) and substrate (p‐nitrophenyl glucopyranoside) were dissolved in a solution of potassium phosphate buffer (pH 6.3, 3 mM). Final compounds 8 a–o were dissolved in DMSO to give a final concentration of 200 μM. […] All samples (5 μL), enzyme (20 μL), and potassium phosphate buffer (60 μL) were added to the 96‐well plate and incubated at 37 °C for 5 min. Thereafter, the substrate (10 μL, 4 mM) was added to the mixture and incubated at 37 °C for 20 min followed by the addition of sodium carbonate (25 μL). Finally, the absorbance readings were measured by BioTek® PowerWave XS spectrophotometer (Winooski, VT, USA). Since the enzyme and substrate controls […], the percentage of α‐glucosidase inhibition was calculated using follows: (1) %α-glucosidaseinhibition=(A405nmofcontrol-A405nmoftestsample)/A405nmofcontrol×100

[2] = text statement for 50 and 100 μM together

T1 sequence (P53341 whole entry): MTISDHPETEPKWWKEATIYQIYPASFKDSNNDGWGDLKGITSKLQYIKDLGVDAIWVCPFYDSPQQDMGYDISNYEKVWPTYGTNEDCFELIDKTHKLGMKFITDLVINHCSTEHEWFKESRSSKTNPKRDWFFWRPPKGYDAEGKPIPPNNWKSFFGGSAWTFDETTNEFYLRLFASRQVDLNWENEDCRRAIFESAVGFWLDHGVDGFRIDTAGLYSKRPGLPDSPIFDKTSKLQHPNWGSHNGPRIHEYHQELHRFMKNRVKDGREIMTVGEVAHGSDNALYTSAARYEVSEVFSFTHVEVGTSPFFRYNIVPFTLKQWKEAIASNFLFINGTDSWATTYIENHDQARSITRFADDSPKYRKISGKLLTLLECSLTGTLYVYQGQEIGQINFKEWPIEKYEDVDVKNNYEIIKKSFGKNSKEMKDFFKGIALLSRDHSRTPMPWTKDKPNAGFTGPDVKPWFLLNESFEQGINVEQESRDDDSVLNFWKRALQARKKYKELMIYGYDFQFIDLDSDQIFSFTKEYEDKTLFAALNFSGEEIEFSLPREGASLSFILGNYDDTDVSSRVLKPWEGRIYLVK

SMILES | Cytotoxicity, live cells (Caco2 cell line) | Cytotoxicity, live cells (Caco2 cell line; listed as 8a) | inhibition at 200 µM ([1]; 200 μM) | α-glucosidase inhibition ([1]; 200 μM) | α-glucosidase inhibition [1, 2] | inhibition at 50 µM ([1]; 50 μM) | inhibition at 100 µM ([1]; 100 μM) | α-glucosidase inhibition ([1]; 10 μM) | inhibition at 10 µM ([1]; 10 μM) | α-glucosidase inhibition ([1]; 50 μM) | α-glucosidase inhibition ([1]; 100 μM)
COC(=O)C(C)NC(=O)CN1C(=O)N/C(=C\c2ccc(OC)cc2)C1=O (stereo not drawn) [8 a] | 2605 | 2605 ± 293 | 51.6 ± 2.92% | moderate inhibition | no activity |  |  |  |  |  | 
CCC(NC(=O)CN1C(=O)NC(=Cc2ccc(OC)cc2)C1=O)C(=O)OC (stereo not drawn) [8 b] |  |  | 39.3 ± 1.01% |  |  | 0.43 ± 16.8% |  |  |  |  | 
COC(=O)C(NC(=O)CN1C(=O)N/C(=C\c2ccc(OC)cc2)C1=O)C(C)C (stereo not drawn) [8 c] |  |  | 41 ± 2.62% |  |  | 3.37 ± 11.5% | 9.51 ± 19.7% |  |  |  | 
COC(=O)C(C)NC(=O)CN1C(=O)N/C(=C\c2ccc(C)cc2)C1=O (stereo not drawn) [8 e] | 2567 ± 299 |  | 51.4% | 31.35 ± 1.95% |  | 9.01 ± 16.4% | 9.75 ± 6.4% | ‐ |  |  | 
CCC(NC(=O)CN1C(=O)N/C(=C\c2ccc(C)cc2)C1=O)C(=O)OC (stereo not drawn) [8 f] | 2230 ± 570 |  |  |  |  | 8.87 ± 21.3% | 12.2 ± 10.9% |  | 4.92 ± 18% |  | 
COC(=O)C(NC(=O)CN1C(=O)N/C(=C\c2ccc(C)cc2)C1=O)C(C)C (stereo not drawn) [8 g] |  |  | 45.2 ± 3.6% |  |  | 4.13 ± 4.26% | 18 ± 3.95% |  | 1.8 ± 13.8% |  | 
CCCC(NC(=O)CN1C(=O)N/C(=C\c2ccc(C)cc2)C1=O)C(=O)OC (stereo not drawn) [8 h] |  |  | 42.8 ± 4.3% |  |  | 16.3 ± 15.2% | 25.4 ± 7.88% |  | 3.45 ± 13.6% |  | 
CCOC(=O)C(C)NC(=O)CN1C(=O)N/C(=C\c2ccc(C)cc2)C1=O (stereo not drawn) [8 i] | 2595 ± 289 |  | 44.6 ± 0.99% |  | no activity |  |  | ‐ |  | ‐ | ‐
CCOC(=O)C(NC(=O)CN1C(=O)N/C(=C\c2ccc(C)cc2)C1=O)C(C)C (stereo not drawn) [8 j] | 2565 ± 198 |  | 48.5 ± 2.33% |  |  | 13.8 ± 9.6% | 19.2 ± 10.2% |  | 6.49 ± 17.8% |  | 
CCCC(NC(=O)CN1C(=O)N/C(=C\c2ccc(C)cc2)C1=O)C(=O)OCC (stereo not drawn) [8 k] |  |  | 41.9 ± 3.31% |  |  | 14.5 ± 5.42% | 17 ± 8.54% |  |  |  | 
COC(=O)C(C)NC(=O)CN1C(=O)N/C(=C\c2ccc3c(c2)OCO3)C1=O (stereo not drawn) [8 l] |  |  | 57.4 ± 4.05% |  |  | 7.7 ± 17.8% | 9.6 ± 23% | ‐ |  |  | 
CCC(NC(=O)CN1C(=O)N/C(=C\c2ccc3c(c2)OCO3)C1=O)C(=O)OC (stereo not drawn) [8 m] |  |  | 37.6 ± 10% |  |  | 6.94 ± 10.9% | 11.2 ± 11% | ‐ |  |  | 
CCOC(=O)C(NC(=O)CN1C(=O)N/C(=C\c2ccc3c(c2)OCO3)C1=O)C(C)C (stereo not drawn) [8 n] | 2039 ± 740 |  | 57.4 ± 2.79% |  |  | 14 ± 16.4% | 28.3 ± 17.3% |  | 0.73 ± 11.4% |  | 
CCCC(NC(=O)CN1C(=O)N/C(=C\c2ccc3c(c2)OCO3)C1=O)C(=O)OC (stereo not drawn) [8 o] |  |  | 57.8 ± 6.38% |  |  | 16 ± 17.9% | 37.4 ± 24.9% |  | 11.3 ± 15.2% |  | 
O=C(O[C@@H]1Cc2c(O)cc(O)cc2O[C@@H]1c1cc(O)c(O)c(O)c1)c1cc(O)c(O)c(O)c1 [EGCG, Epigallocatechin gallate, reference compound] |  |  | 97.03 ± 0.41% |  |  | 97.03 ± 0.41% | 97.03 ± 0.41% |  | 97.03 ± 0.41% |  | 
